Measured values from US10858335B2 (Rigel Pharmaceuticals, Inc., priority 2014, dated 2020).
pIC50: −log10 of the molar value.

tested on: GDF8 signaling (p-SMAD-3 (Ser423/425)); assay: AlphaScreen SureFire SMAD3 (p-Ser423/425) assay, GDF8-stimulated cells (GDF pSMAD); type: cell-based; conditions: Mus musculus, MPC-11, MPC11; GDF8-stimulated; p-SMAD3 AlphaScreen; read-out: GDF pSMAD (MPC11) (inhibition of GDF8 signaling)

Compound	pIC50
Cc1cc(-c2ncccc2-c2ccn3c(C(=O)NCCN4CCOCC4)ncc3c2)ccc1F [compound 275, 7-(2-(4-Fluoro-3-methylphenyl)pyridin-3-yl)-N-(2-morpholinoethyl)imidazo[1,5-a]pyridine-3-carboxamide]	5.53
CN1CCC(NC(=O)c2cnc3ccc(-c4cccnc4-c4cc(F)c(F)cc4F)cn23)CC1 [compound 710, N-(1-Methylpiperidin-4-yl)-6-(2-(2,4,5-Trifluorophenyl)pyridin-3-yl)imidazo[1,2-a]pyridine-3-carboxamide]	5.91
Cc1cc(-c2ncccc2-c2ccc3ncc(-c4ccc(S(N)(=O)=O)cc4)n3c2)ccc1F [compound 281, 4-(6-(2-(4-Fluoro-3-methylphenyl)pyridin-3-yl)imidazo[1,2-a]pyridin-3-yl)benzenesulfonamide]	5.88
Nc1ncnc2ccc(-c3cccnc3-c3cc(F)ccc3F)cc12 [compound 454, 6-(2-(2,5-Difluorophenyl)pyridin-3-yl)quinazolin-4-amine]	6.03
Cc1cc(-c2ncc(NCc3cccnc3)cc2-c2ccc3ncsc3c2)ccc1F [compound 306, 5-(Benzo[d]thiazol-6-yl)-6-(4-fluoro-3-methylphenyl)-N-(pyridin-3-ylmethyl)pyridin-3-amine]	6.89
c1cc(-c2ncccc2-c2ccc3ncsc3c2)cc(C2CC2)c1 [Compound 194, 6-(2-(3-Cyclopropylphenyl)pyridin-3-yl)benzo[d]thiazole]	6.83
Cc1cc(-c2ncccc2-c2ccc3nccc(C(N)=O)c3c2)ccc1F [compound 846, 6-(2-(4-Fluoro-3-methylphenyl)pyridin-3-yl)quinoline-4-carboxamide]	4.85
Cc1cc(-c2ncc(NCc3ccc(CN4CCOCC4)cc3)cc2-c2ccc3ncsc3c2)ccc1F [compound 358, 5-(Benzo[d]thiazol-6-yl)-6-(4-fluoro-3-methylphenyl)-N-(4-(morpholinomethyl)benzyl)pyridin-3-amine]	6.06
Fc1ccc(-c2ncccc2-c2ccc3ncnc(Nc4cccnc4)c3c2)cc1Cl [compound 490, 6-(2-(3-Chloro-4-fluorophenyl)pyridin-3-yl)-N-(pyridin-3-yl)quinazolin-4-amine]	5.19
N#Cc1cnc2ccc(-c3cccnc3-c3cc(Cl)ccc3F)nn12 [compound 950, 6-(2-(5-Chloro-2-fluorophenyl)pyridin-3-yl)imidazo[1,2-b]pyridazine-3-carbonitrile]	6.89
COc1cnc(-c2cccc(Cl)c2)c(-c2ccn3ncnc3c2)c1 [compound 855, 7-(2-(3-Chlorophenyl)-5-methoxypyridin-3-yl)-[1,2,4]triazolo[1,5-a]pyridine]	5.46
Cc1cc(-c2ncccc2-c2cnc3cn[nH]c3c2)ccc1F [Compound 138, 6-(2-(4-Fluoro-3-methylphenyl)pyridin-3-yl)-1H-pyrazolo[4,3-b]pyridine]	5.36
Fc1ccc(-c2ncccc2-c2ccc3ncc(-c4ncc[nH]4)n3c2)cc1Cl [compound 845, 6-(2-(3-Chloro-4-fluorophenyl)pyridin-3-yl)-3-(1H-imidazol-2-yl)imidazo[1,2-a]pyridine]	7.23
Cc1cc(-c2ncccc2-c2ccc3ncc(C(=O)NCCCN4CCCCC4)n3c2)ccc1F [compound 611, 6-(2-(4-Fluoro-3-methylphenyl)pyridin-3-yl)-N-(3-(piperidin-1-yl)propyl)imidazo[1,2-a]pyridine-3-carboxamide]	6.94
CS(=O)(=O)Nc1cccc(-c2ncccc2-c2ccc3[nH]ncc3c2)c1 [Compound 76, 5-(2-(3-Methylsulfphonylaminophenyl)pyridin-3-yl)-1H-indazole]	5.74
Cc1cc(-c2ncc(NCc3cnc4ccccc4c3)cc2-c2ccc3ncsc3c2)ccc1F [compound 339, 5-(Benzo[d]thiazol-6-yl)-6-(4-fluoro-3-methylphenyl)-N-(quinolin-3-ylmethyl)pyridin-3-amine]	6.23
c1ccc(-c2ncccc2-c2ccc3ncnn3c2)cc1 [compound 781, 6-(2-Phenylpyridin-3-yl)-[1,2,4]triazolo[1,5-a]pyridine]	5.23
N#Cc1cnc2ccc(-c3cccnc3-c3cc(Cl)c(F)cc3F)nn12 [compound 951, 6-(2-(5-Chloro-2,4-difluorophenyl)pyridin-3-yl)imidazo[1,2-b]pyridazine-3-carbonitrile]	6.27
Cc1cc(-c2ncccc2-c2ccc3ccncc3c2)ccc1F [Compound 209, 7-(2-(4-Fluoro-3-methylphenyl)pyridin-3-yl)isoquinoline]	4.74
Cc1cc(-c2ncc(-c3ccc(C(N)=O)cc3)cc2-c2ccc3ncsc3c2)ccc1F [compound 318, 4-(5-(Benzo[d]thiazol-6-yl)-6-(4-fluoro-3-methylphenyl)pyridin-3-yl)benzamide]	5.88
Fc1ccc(-c2ncccc2-c2ccc3nccnc3c2)cc1Cl [compound 690, 6-(2-(3-Chloro-4-fluorophenyl)pyridin-3-yl)quinoxaline]	6.38
Fc1ccc(-c2ncccc2-c2ccn3nccc3n2)cc1C1CC1 [compound 896, 5-(2-(3-Cyclopropyl-4-fluorophenyl)pyridin-3-yl)pyrazolo[1,5-a]pyrimidine]	7.03
Cc1cc(-c2ncc(NC(=O)c3ccncc3)cc2-c2ccc3ncsc3c2)ccc1F [compound 314, N-(5-(Benzo[d]thiazol-6-yl)-6-(4-fluoro-3-methylphenyl)pyridin-3-yl)isonicotinamide]	5.27
Cc1cccc(-c2ncccc2-c2ccc3ncc(C)n3c2)c1 [compound 528, 3-Methyl-6-(2-(m-Tolyl)pyridin-3-yl)imidazo[1,2-a]pyridine]	6.76
COc1ccc(CNc2cnc(-c3ccc(F)c(C)c3)c(-c3ccc4ncsc4c3)c2)cc1OCC(N)=O [compound 352, 2-(5-(((5-(Benzo[d]thiazol-6-yl)-6-(4-fluoro-3-methylphenyl)pyridin-3-yl)amino)methyl)-2-methoxyphenoxy)acetamide]	6.51
COc1cc(CNc2cnc(-c3ccc(F)c(C)c3)c(-c3ccc4ncsc4c3)c2)cc(O)c1OC [compound 367, 5-(((5-(Benzo[d]thiazol-6-yl)-6-(4-fluoro-3-methylphenyl)pyridin-3-yl)amino)methyl)-2,3-dimethoxyphenol]	6.55
CCc1cccc(-c2ncccc2-c2cnc3[nH]ncc3c2)c1 [Compound 151, 5-(2-(3-Ethylphenyl)pyridin-3-yl)-1H-pyrazolo[3,4-b]pyridine]	6.17
Cc1cc(-c2ncccc2-c2ccn3ncc(C(=O)NCCCN)c3c2)ccc1F [compound 684, N-(3-Aminopropyl)-5-(2-(4-fluoro-3-methylphenyl)pyridin-3-yl)pyrazolo[1,5-a]pyridine-3-carboxamide]	6.23
